Experimental data from patent publication US20230122249A1, “1H-PYRAZOLO[4,3-d]PYRIMIDINE COMPOUNDS AS TOLL-LIKE RECEPTOR 7 (TLR7) AGONISTS” (BRISTOL-MYERS SQUIBB COMPANY, priority 2020, published 2023).

Legend:
human TLR7 = molecular target: T1, human TLR7 (Homo sapiens, UniProt Q9NYK1); assay: Human TLR7 agonist activity (hTLR7 reporter) assay in HEK-Blue TLR7 cells, SEAP readout; assay type: cell-based; settings: 18 h treatment, average where assay repeated
T1 construct: host or cells: HEK-Blue TLR7 cells (engineered human embryonic kidney cells)
T1 sequence (Q9NYK1 27-1049): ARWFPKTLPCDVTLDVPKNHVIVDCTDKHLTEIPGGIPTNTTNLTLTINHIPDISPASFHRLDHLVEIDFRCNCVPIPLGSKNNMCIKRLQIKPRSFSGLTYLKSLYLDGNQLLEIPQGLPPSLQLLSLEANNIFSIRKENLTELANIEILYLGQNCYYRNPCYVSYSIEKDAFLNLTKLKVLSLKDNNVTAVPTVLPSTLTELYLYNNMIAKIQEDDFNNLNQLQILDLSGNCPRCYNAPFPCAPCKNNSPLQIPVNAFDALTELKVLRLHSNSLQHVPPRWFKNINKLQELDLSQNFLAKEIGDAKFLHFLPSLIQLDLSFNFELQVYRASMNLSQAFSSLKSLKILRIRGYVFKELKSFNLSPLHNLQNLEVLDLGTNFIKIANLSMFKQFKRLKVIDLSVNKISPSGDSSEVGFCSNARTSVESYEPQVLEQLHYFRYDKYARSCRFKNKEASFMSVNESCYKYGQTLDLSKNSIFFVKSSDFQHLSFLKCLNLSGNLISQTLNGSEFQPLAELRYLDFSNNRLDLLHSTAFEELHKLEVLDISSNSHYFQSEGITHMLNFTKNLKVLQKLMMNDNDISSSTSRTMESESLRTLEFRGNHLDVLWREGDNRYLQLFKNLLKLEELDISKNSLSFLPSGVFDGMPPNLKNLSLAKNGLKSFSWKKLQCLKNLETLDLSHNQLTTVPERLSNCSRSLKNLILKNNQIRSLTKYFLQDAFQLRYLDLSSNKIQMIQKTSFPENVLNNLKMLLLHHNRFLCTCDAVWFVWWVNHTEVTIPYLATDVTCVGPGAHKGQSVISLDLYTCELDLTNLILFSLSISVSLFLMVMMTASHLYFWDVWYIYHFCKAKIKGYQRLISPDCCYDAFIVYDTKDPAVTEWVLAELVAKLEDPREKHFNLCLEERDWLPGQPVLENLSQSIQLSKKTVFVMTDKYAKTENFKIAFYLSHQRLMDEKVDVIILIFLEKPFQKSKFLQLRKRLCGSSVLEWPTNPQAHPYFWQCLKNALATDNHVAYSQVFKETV
Experimental: This procedure describes a method for assaying human TLR7 (hTLR7) agonist activity of the compounds disclosed in this specification.
HEK-Blue™ TLR7 cells were added to each well of a 384-well tissue-culture plate (15,000 cells per well) and incubated 16-18 h at 37° C., 5% CO2. Compounds (100 nl) were dispensed into wells containing the HEK-Blue™ TLR cells and the treated cells were incubated at 37° C., 5% CO2. After 18 h treatment ten microliters of freshly-prepared Quanti-Blue™ reagent (Invivogen) was added to each well, incubated for 30 min (37° C., 5% CO2) and SEAP levels measured using an Envision plate reader (OD=620 nm). The half maximal effective concentration values (EC50; compound concentration which induced a response halfway between the assay baseline and maximum) were calculated.

[1] = test system: CD69 in human whole blood; assay: Induction of CD69 in human whole blood (hWB); assay type: cell-based; settings: heparinized human whole blood, 17 h, CD69 surface staining; 100% set to 1 uM resiquimod; average where assay repeated
Experimental: The induction of Type I interferon (IFN) MX-1 genes and the B-cell activation marker CD69 are downstream events that occur upon activation of the TLR7 pathway. The following is a human whole blood assay that measures their induction in response to a TLR7 agonist.
Heparinized human whole blood was harvested from human subjects and treated with test TLR7 agonist compounds at 1 mM. The blood was diluted with RPMI 1640 media and Echo was used to predot 10 nL per well giving a final concentration of 1 uM (10 nL in 10 uL of blood). After mixing on a shaker for 30 sec, the plates were covered and placed in a 37° C. chamber for o/n=17 hrs. Fixing/lysis buffer was prepared (5×->1×in H2O, warm at 37° C.; Cat# BD 558049) and kept the perm buffer (on ice) for later use.
For surface markers staining (CD69): prepared surface Abs: 0.045 ul hCD14-FITC (ThermoFisher Cat # MHCD1401)+0.6 ul hCD19-ef450 (ThermoFisher Cat #48-0198-42)+1.5 ul hCD69-PE (cat# BD555531)+0.855 ul FACS buffer. Added 3 ul/well, spin1000 rpm for 1 min and mixed on shaker for 30 sec, put on ice for 30 mins. Stop stimulation after 30 minutes with 70 uL of prewarmed 1×fix/lysis buffer and use Feliex mate to resuspend (15 times, change tips for each plate) and incubate at 37° C. for 10 minutes.
Centrifuge at 2000 rpm for 5 minutes aspirate with HCS plate washer, mix on shaker for 30 sec and then wash with 70 uL in dPBS and pelleted 2 xs (2000 rpm for 5 min) and 50 ul wash in FACS buffer pelleted 1 xs(2000 rpm for 5 min). Mix on shaker for 30 sec. For Intracellular markers staining (MX-1): Add 50 ul of BD Perm buffer III and mix on shaker for 30 sec. Incubate on ice for 30 minutes (in the dark). Wash with 50 uL of FACS buffer 2×(spin @2300 rpm×5 min after perm) followed by mixing on shaker for 30 sec. Resuspended in 20 ul of FACS buffer containing MX1 antibody ( )(4812)-Alexa 647: Novus Biologicals #NBP2-43704AF647) 20 ul FACS bf+0.8 ul hlgG+0.04 ul MX-1. Spin 1000 rpm for 1 min, mix on shaker for 30 se and the samples were incubated at RT in the dark for 45 minutes followed by washing 2×FACS buffer (spin @2300 rpm×5 min after perm). Resuspend 20 ul (35 uL total per well) of FACS buffer and cover with foil and place in 4° C. to read the following day. Plates were read on iQuePlus. The results were loaded into toolset and […] curves are generated in curve master. The y-axis 100% is set to 1 uM of resiquimod.

Structure (SMILES) | EC50 (human TLR7) [nM] | EC50 [1] [nM]
COc1cc(CN2CC3(CCOCC3)C2)ccc1Cn1ncc2nc(N)nc(NCC3CC4(C3)CC4F)c21 (stereo not shown) [Compound 117] | 141 | 122
COc1cc(CN2C[C@H]3COC[C@H]3C2)ccc1Cn1ncc2nc(N)nc(NCC3CC4(C3)CC4F)c21 (stereo partly shown) [Compound 119] | 144 | 258
COc1cc(CN2CC3(C2)CN(C(C)=O)C3)ccc1Cn1ncc2nc(N)nc(NCC3CC4(C3)CC4F)c21 (stereo not shown) [Compound 121] | 358 | 160
COc1cc(CN2CC3(CCO3)C2)ccc1Cn1ncc2nc(N)nc(NCC3CC4(C3)CC4F)c21 (stereo not shown) [Compound 127] | 214 | 413
COc1cc(CN2CC3(CN(C)C3)C2)ccc1Cn1ncc2nc(N)nc(NCC3CC4(CC4)C3)c21 [Compound 131] | 234 | 4.6
COc1cc(CN2CC3(C2)CS(=O)(=O)C3)ccc1Cn1ncc2nc(N)nc(NCC3CC4(C3)CC4(F)F)c21 (stereo not shown) [Compound 139] | 382 | 464
COc1cc(CN2C[C@@H]3C[C@H]2CN3)ccc1Cn1ncc2nc(N)nc(NCC3CC4(C3)CC4(F)F)c21 (stereo partly shown) [Compound 141] | 266 | 244
COc1cc(CN2CC3(C2)CS(=O)(=O)C3)ccc1Cn1ncc2nc(N)nc(NCC3CC4(CC4)C3)c21 (stereo not shown) [Compound 145] | 179 | 326
COc1cc(CN2CC3(CC(O)C3)C2)ccc1Cn1ncc2nc(N)nc(NCC3CC4(CC4)C3)c21 (stereo not shown) [Compound 146] | 42.5 | 8.9
COc1cc(CN2CC3(CC(OC)C3)C2)ccc1Cn1ncc2nc(N)nc(NCC3CC4(CC4)C3)c21 (stereo not shown) [Compound 147] | 40.5 | 37
COc1cc(CN2C[C@H]3CN(C)C[C@H]3C2)ccc1Cn1ncc2nc(N)nc(NCC3CC4(CC4)C3)c21 [Compound 148] | 74.2 | 9.6
COc1cc(C(=O)N2CC3(CN(C)C3)C2)ccc1Cn1ncc2nc(N)nc(NCC3CC4(C3)CC4(F)F)c21 (stereo not shown) [Compound 149] | 42 | 31
COc1cc(C(=O)N2C[C@H]3CN(C)C[C@H]3C2)ccc1Cn1ncc2nc(N)nc(NCC3CC4(C3)CC4(F)F)c21 (stereo partly shown) [Compound 150] | 9.4 | 17.2
COc1cc(C(=O)N2C[C@@H]3C[C@H]2CN3C)ccc1Cn1ncc2nc(N)nc(NCC3CC4(C3)CC4(F)F)c21 (stereo partly shown) [Compound 151] | 45 | 32.4
COc1cc(CN2CC3(CNC3)C2)ccc1Cn1ncc2nc(N)nc(NCC3CC(C4CC4)C3)c21 (stereo not shown) [Compound 152] | 167 | 152
COc1cc(CNC2CCC2)ccc1Cn1ncc2nc(N)nc(NCC3CC4(CCC4)C3)c21 [Compound 153] | 30.5 | 189
COc1cc(CNC2CCOCC2)ccc1Cn1ncc2nc(N)nc(NCC3CC4(CCC4)C3)c21 [Compound 154] | 26.9 | 130
COc1cc(CN2CC3(CNC3)C2)ccc1Cn1ncc2nc(N)nc(NCC3CC4(CCC4)C3)c21 [Compound 155] | 583 | 552

Structure (SMILES) | EC50 (human TLR7) [nM] | EC50 [1] [nM]
COc1cc(CN2C[C@@H]3C[C@H]2CN3)ccc1Cn1ncc2nc(N)nc(NCC3CC4(CCC4)C3)c21 [Compound 156] | 76.9 | 374
COc1cc(CN2C[C@H]3CNC[C@H]3C2)ccc1Cn1ncc2nc(N)nc(NCC3CC4(CCC4)C3)c21 [Compound 157] | 65.7 | 364
COc1cc(CN2CC3(CC(O)C3)C2)ccc1Cn1ncc2nc(N)nc(NCC3CC4(CCC4)C3)c21 (stereo not shown) [Compound 158] | 38 | 39.1
COc1cc(C(=O)N2C[C@H]3CNC[C@H]3C2)ccc1Cn1ncc2nc(N)nc(NCC3CC4(C3)CC4(F)F)c21 (stereo partly shown) [Compound 159] | 909 | 1000
COc1cc(C(=O)NCCN(C)C)ccc1Cn1ncc2nc(N)nc(NCC3CC4(C3)CC4(F)F)c21 (stereo not shown) [Compound 163] | 705 | 268
COc1cc(CO)ccc1Cn1ncc2nc(N)nc(NCC3CC4(CC4)C3)c21 [Compound 166, (4-((5-amino-7-((spiro[2.3]hexan-5-ylmethyl)amino)-1H-pyrazolo[4,3-d]pyrimidin-1-yl)methyl)-3-methoxyphenyl)methanol] | 261 | 117
COc1cc(CN[C@H]2C[C@H](O)C2)ccc1Cn1ncc2nc(N)nc(NCC3CC4(CC4)C3)c21 [Compound 167] | 23 | 1.7
COc1cc(CN2CC(CCO)C2)ccc1Cn1ncc2nc(N)nc(NCC3CC4(CC4)C3)c21 [Compound 168] | 30.4 | 3.8
COc1cc(CN2C[C@H]3CNC[C@H]3C2)ccc1Cn1ncc2nc(N)nc(NCC3CC4(CC4)C3)c21 [Compound 169] | 28 | 4.5
COc1cc(CNCCO)ccc1Cn1ncc2nc(N)nc(NCC3CC4(CC4)C3)c21 [Compound 170] | 18.5 | 2.1
COc1cc(C(=O)N2CCNCC2)ccc1Cn1ncc2nc(N)nc(NCC3CC4(CC4)C3)c21 [Compound 171] | 17 | 2.8
COc1cc(C(=O)N2CC3(CNC3)C2)ccc1Cn1ncc2nc(N)nc(NCC3CC4(CC4)C3)c21 [Compound 172] | 785 | 300
COc1cc(C(=O)N2CC3(CN(C)C3)C2)ccc1Cn1ncc2nc(N)nc(NCC3CC4(CC4)C3)c21 [Compound 173] | 20.9 | 5.4
COc1cc(C(=O)N2CC3(COC3)C2)ccc1Cn1ncc2nc(N)nc(NCC3CC4(CC4)C3)c21 [Compound 174] | 93.1 | 934
COc1cc(C(=O)N2C[C@H]3CNC[C@H]3C2)ccc1Cn1ncc2nc(N)nc(NCC3CC4(CC4)C3)c21 [Compound 175] | 96.5 | 48.8
COc1cc(C(=O)N2C[C@H]3CN(C)C[C@H]3C2)ccc1Cn1ncc2nc(N)nc(NCC3CC4(CC4)C3)c21 [Compound 176] | 10.8 | 3.6
COc1cc(C(=O)N[C@H]2C[C@H](O)C2)ccc1Cn1ncc2nc(N)nc(NCC3CC4(CC4)C3)c21 [Compound 177] | 579 | 359
